Source: PMC10817531, “Chlorinated Enyne Fatty Acid Amides from a Marine Cyanobacterium: Discovery of Taveuniamides L-M and Pharmacological Characterization of Taveuniamide F as a GPCR Antagonist with CNR1 Selectivity” (Marine Drugs, 2023)
Several values for one entry are separate records, joined by “and”; a condition that tells them apart may be missing. Identical values can stand only once.

Tests used:
Type in all cases: cell-based
HEK293 cells = experiment: MTT cell viability assay; details: 24 h exposure, 100 μM
Procedure: (§1) HEK293 cells were purchased from ATCC (Manassas, VA, USA). They were cultured and maintained in Dulbecco’s modified Eagle medium (DMEM; Invitrogen, Waltham, MA, USA) supplemented with 10% fetal bovine serum (FBS; HyClone, Logan, UT, USA) and 1% antibiotic-antimycotic (Invitrogen) at 37 °C in a humidified atmosphere with 5% CO2. HEK293 cells were seeded in 96-well plates at densities of 15,000 cells per well in 100 μL, respectively. After 16 h of incubation, the cells were treated with 0.5 μL of various concentrations of compounds or a DMSO solvent control. Following 24 h of incubation, cells were treated with 3-(4,5-dimethylthiazol-2-yl)-2,5-diphenyltetrazolium bromide according to the manufacturer’s instructions (Promega, Madison, WI, USA). The experiments were performed as technical triplicates.

MTT cell viability assay = details: human, HEK293 cells; 24 h exposure, majority of tested concentrations (below 100 μM)
Procedure: as §1

CHRM4 = target: T1, CHRM4 (Homo sapiens, UniProt P08173); experiment: PathHunter β-arrestin GpcrMAX assay
T1 construct: host or cells: CHO-K1
T1 sequence (P08173 1-479): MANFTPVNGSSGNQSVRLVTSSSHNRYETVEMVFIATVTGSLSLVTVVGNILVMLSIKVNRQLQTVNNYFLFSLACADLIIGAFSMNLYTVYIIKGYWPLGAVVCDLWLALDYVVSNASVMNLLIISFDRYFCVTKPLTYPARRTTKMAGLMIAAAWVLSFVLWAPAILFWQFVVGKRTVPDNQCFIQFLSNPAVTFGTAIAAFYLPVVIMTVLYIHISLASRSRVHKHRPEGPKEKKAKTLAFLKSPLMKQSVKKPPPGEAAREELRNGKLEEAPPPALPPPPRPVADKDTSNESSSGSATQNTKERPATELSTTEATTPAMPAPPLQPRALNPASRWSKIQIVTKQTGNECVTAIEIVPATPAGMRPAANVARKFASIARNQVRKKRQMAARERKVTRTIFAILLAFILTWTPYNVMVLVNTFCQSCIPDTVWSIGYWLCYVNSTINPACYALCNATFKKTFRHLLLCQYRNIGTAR
Procedure: (§2) GpcrMAX panel biosensor assays were used to characterize taveuniamide F (4, 20 µM) (agonist and antagonist mode). The experiments were carried out by DiscoveRx Corporation (Fremont, CA, USA) as described before, using PathHunter β-arrestin enzyme fragment complementation (EFC) technology.
(§3) Dose–response curves were obtained by subjecting taveuniamide F (4) to a secondary antagonist screen utilizing ten GPCR biosensor assays (Arrestin) against the following targets: GPR119, NPSR1b, HTR2C, CCR9, CHRM4, GPR120, HTR2A, GPR103, CNR1, and CNR2. Stably transfected HEK293 cells expressing GPR119, U2OS cells expressing NPSR1b, HTR2C and HTR2A, and CHO-K1 cells expressing the rest of the mentioned receptors, were incubated with 4 for 30 min. The assays were performed at 10-point concentrations using 3-fold serial dilutions in duplicate, where the highest concentration was 50 µM.

NPSR1b = target: T2, NPSR1b (Homo sapiens, UniProt Q6W5P4); experiment: PathHunter β-arrestin GpcrMAX assay
T2 construct: β-galactosidase enzyme fragment for EFC (ProLink by own knowledge); host or cells: U2OS
Procedure: as §2, §3

HTR2C = target: T3, HTR2C (Homo sapiens, UniProt P28335); experiment: PathHunter β-arrestin GpcrMAX assay
T3 construct: β-galactosidase enzyme fragment for EFC (ProLink by own knowledge); host or cells: U2OS
T3 sequence (P28335 33-458): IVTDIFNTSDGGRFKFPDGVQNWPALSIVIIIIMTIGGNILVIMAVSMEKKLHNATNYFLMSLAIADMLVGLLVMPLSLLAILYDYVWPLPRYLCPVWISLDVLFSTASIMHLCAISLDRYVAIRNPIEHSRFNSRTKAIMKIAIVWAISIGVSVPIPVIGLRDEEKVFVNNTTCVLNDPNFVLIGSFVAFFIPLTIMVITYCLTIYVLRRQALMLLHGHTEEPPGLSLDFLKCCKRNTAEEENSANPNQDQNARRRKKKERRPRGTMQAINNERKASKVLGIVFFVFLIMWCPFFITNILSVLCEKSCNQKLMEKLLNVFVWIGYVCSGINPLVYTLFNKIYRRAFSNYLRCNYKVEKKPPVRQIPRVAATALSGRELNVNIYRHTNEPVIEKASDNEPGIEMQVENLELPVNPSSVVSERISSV
Procedure: as §2, §3

CNR1 = target: T4, CNR1 (Homo sapiens, UniProt P21554); experiment: PathHunter β-arrestin GpcrMAX assay
T4 construct: host or cells: CHO-K1
Procedure: as §2, §3

CCR9 = target: T5, CCR9 (Homo sapiens, UniProt P51686); experiment: PathHunter β-arrestin GpcrMAX assay
T5 construct: host or cells: CHO-K1
T5 sequence (P51686 1-369): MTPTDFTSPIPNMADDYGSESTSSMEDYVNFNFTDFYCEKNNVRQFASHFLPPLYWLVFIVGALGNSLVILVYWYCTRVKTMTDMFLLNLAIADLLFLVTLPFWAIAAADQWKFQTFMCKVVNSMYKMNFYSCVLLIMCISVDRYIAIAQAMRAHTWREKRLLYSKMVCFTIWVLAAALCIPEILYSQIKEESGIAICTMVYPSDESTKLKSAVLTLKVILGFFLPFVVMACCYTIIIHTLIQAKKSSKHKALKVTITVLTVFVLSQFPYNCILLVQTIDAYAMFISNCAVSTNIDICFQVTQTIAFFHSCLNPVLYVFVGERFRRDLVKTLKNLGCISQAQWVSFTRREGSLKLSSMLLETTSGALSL
Procedure: as §2, §3

GPR119 = target: T6, GPR119 (Homo sapiens, UniProt Q8TDV5); experiment: PathHunter β-arrestin GpcrMAX assay
T6 construct: host or cells: HEK293
Procedure: as §2, §3

CNR2 = target: T7, CNR2 (Homo sapiens, UniProt P34972); experiment: PathHunter β-arrestin GpcrMAX assay
T7 construct: purchased DiscoveRx (Eurofins) gpcrMAX PathHunter β-arrestin panel
Procedure: as §2, §3

[1] = antagonist dose–response, 10-point, CHO-K1 cells, 30 min
[2] = antagonist mode (% inhibition), 20 µM
[3] = antagonist dose–response, 10-point, U2OS cells, 30 min

T4 sequence (P21554 whole entry): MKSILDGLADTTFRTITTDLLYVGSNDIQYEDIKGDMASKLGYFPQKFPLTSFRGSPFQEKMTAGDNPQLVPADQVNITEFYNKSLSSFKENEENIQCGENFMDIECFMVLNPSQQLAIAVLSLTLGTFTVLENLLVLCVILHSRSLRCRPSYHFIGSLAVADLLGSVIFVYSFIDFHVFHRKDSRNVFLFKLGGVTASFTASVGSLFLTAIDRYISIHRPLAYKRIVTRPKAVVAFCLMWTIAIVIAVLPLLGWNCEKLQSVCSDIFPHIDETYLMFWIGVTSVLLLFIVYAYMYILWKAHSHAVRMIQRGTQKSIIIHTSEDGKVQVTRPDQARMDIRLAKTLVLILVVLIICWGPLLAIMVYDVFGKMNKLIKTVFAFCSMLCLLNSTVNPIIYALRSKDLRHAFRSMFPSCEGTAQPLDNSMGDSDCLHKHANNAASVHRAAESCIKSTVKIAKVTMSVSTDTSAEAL
T6 sequence (Q8TDV5 whole entry): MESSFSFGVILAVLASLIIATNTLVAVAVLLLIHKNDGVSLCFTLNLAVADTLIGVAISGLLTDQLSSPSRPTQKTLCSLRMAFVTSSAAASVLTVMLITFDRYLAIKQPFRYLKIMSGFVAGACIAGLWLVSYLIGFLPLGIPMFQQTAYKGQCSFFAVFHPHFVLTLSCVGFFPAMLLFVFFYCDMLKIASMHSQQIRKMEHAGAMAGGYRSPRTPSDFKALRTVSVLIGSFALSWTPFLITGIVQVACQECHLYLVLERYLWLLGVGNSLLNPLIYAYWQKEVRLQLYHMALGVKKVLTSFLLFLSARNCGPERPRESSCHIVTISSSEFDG
T2 sequence (Q6W5P4 1-377 isoform Q6W5P4-4): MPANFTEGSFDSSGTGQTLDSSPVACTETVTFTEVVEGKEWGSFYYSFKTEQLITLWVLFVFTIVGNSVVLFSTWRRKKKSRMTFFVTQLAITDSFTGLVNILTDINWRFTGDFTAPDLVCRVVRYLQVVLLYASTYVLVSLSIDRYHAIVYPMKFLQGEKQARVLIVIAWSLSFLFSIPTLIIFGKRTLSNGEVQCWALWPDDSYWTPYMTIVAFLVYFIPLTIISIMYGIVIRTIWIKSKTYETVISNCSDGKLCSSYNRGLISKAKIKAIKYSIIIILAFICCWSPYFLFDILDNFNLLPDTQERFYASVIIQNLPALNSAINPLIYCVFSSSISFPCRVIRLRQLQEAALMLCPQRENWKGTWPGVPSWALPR
T7 sequence (P34972 whole entry): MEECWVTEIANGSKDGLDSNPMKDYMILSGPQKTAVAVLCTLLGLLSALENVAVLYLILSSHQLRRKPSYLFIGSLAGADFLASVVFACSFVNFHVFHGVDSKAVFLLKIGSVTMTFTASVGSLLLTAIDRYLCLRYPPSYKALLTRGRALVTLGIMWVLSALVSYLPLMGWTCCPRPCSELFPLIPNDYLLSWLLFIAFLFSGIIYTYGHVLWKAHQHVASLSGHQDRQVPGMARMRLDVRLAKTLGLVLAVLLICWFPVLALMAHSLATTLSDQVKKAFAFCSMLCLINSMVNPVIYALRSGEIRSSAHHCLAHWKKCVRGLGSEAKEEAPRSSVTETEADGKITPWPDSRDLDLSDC

CC(=O)N[C@@H](CCCC#C/C=C/Cl)CCCCCCC(Cl)Cl [Compound 4, taveuniamide F]
reduction in cell viability (HEK293 cells): 56% | viability at 24 h (MTT cell viability assay): 100% | IC50 (CHRM4; [1]): 1.9 µM and 1.92 µM | inhibition (CHRM4; [2]): ≥ 80% | inhibition at 20 µM (CHRM4; [2]): 98.2% | IC50 (NPSR1b; [3]): 4.4 µM and 4.36 µM | inhibition (NPSR1b; [2]): 102% and ≥ 80% | IC50 (HTR2C; [3]): > 50 µM | inhibition (HTR2C; [2]): ≥ 80% | inhibition at 20 µM (HTR2C; [2]): 99.1% | IC50 (CNR1; [1]): 1.84 µM | inhibition (CNR1; [2]): ≥ 80% | inhibition at 20 µM (CNR1; [2]): 84% | selectivity for CNR1 over CNR2 (CNR1; antagonist screen (β-arrestin), CNR1 vs. CNR2): 6.8 fold | IC50 (CCR9; [1]): 7.4 µM and 7.38 µM | inhibition (CCR9; [2]): ≥ 80% | inhibition at 20 µM (CCR9; [2]): 98.9% | IC50 (GPR119; antagonist dose–response, 10-point, HEK293 cells, 30 min): 11.7 µM | inhibition (GPR119; [2]): 114% and ≥ 80% | inhibition at 20 µM (CNR2): 48.6%
